Results: US6518243B1, “Desleucyl glycopeptide antibiotics and methods of making same” (Trustees of Princeton University, priority 1999, dated 2003)

Tests used:
E. faecalis (CL 4877) = assay: Zone of inhibition screen, 96 well agar array format; type: cell-based; parameters: scale not given here; conditions: zone of inhibition relative to 1 mg/ml stock solution of p-chlorobiphenylvancomycin
Summary of the method: (§1)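 Antibacterial testing on a 96-well agar array; each compound screened separately.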

S. aureus (ATCC 29213) = assay: as above; type: cell-based; parameters: scale not given here; conditions: zone of inhibition relative to 1 mg/ml stock solution of p-chlorobiphenylvancomycin
Summary of the method: as §1

E. faecalis ATCC 29212 = assay: MIC determination in BHI media, OD600; type: cell-based; conditions: BHI + 0.1% casamino acids, 18 hours at 37° C., ≧90% OD600 inhibition
Summary of the method: (§2)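 MIC was judged per concentration from endpoint plate readings after an 18-hour incubation at 37° C, using log-phase inoculum at about 5×10^5 CFU/ml and test agents serially diluted in DMSO.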

E. faecium ATCC 49624 = assay: MIC determination in BHI media, OD600; type: cell-based; conditions: BHI + 0.1% casamino acids, 18 hours at 37° C., ≧90% OD600 inhibition
Summary of the method: as §2

S aureus ATCC 29213 = assay: MIC determination in BHI media, OD600; type: cell-based; conditions: BHI + 0.1% casamino acids, 18 hours at 37° C., ≧90% OD600 inhibition
Summary of the method: as §2

S. Aureus ATCC 33591 = assay: MIC determination in BHI media, OD600; type: cell-based; conditions: BHI + 0.1% casamino acids, 18 hours at 37° C., ≧90% OD600 inhibition
Summary of the method: as §2

E. faceium (ATCC 49624) = assay: Zone of inhibition screen, 96 well agar array format;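 also: score 3 means fourfold and score 4 sixteenfold the reference zone size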; type: cell-based, E. faecium; conditions: zone of inhibition relative to 1 mg/ml stock solution of p-chlorobiphenylvancomycin
Summary of the method: as §1

E. faecium CL 4931 = assay: MIC determination in BHI media, OD600; type: cell-based; conditions: BHI + 0.1% casamino acids, 18 hours at 37° C., ≧90% OD600 inhibition
Summary of the method: as §2

SMILES	MIC E. faecalis ATCC 29212 (E. faecalis ATCC 29212) [µg/mL]	MIC E. faecium ATCC 49624 (E. faecium ATCC 49624) [µg/mL]	MIC S. aureus ATCC 29213 (S aureus ATCC 29213) [µg/mL]	MIC S. aureus ATCC 33591 (S. Aureus ATCC 33591) [µg/mL]	MIC E. faecium CL 4931 (E. faecium CL 4931) [µg/mL]	zone score, E. faecalis CL 4877 (E. faecalis (CL 4877))	zone score, S. aureus ATCC 29213 (S. aureus (ATCC 29213))	zone score, E. faecium ATCC 49624 (E. faceium (ATCC 49624))
C[C@H]1O[C@H](O[C@H]2[C@H](Oc3c4cc5cc3Oc3ccc(cc3Cl)[C@@H](O)[C@@H](NC(=O)[C@@H](N)Cc3ccccc3)C(=O)N[C@@H](CC(N)=O)C(=O)N[C@H]5C(=O)N[C@H]3C(=O)N[C@H](C(=O)N[C@@H](C(=O)O)c5cc(O)cc(O)c5-c5cc3ccc5O)[C@H](O)c3ccc(c(Cl)c3)O4)O[C@H](CO)[C@@H](O)[C@@H]2O)C[C@@](C)(NCc2ccc(-c3ccc(Cl)cc3)cc2)[C@H]1O [Compound 7]	0.78	0.12	0.39	0.39	–	2	2	–
CSCC[C@@H](N)C(=O)N[C@H]1C(=O)N[C@@H](CC(N)=O)C(=O)N[C@H]2C(=O)N[C@H]3C(=O)N[C@H](C(=O)N[C@@H](C(=O)O)c4cc(O)cc(O)c4-c4cc3ccc4O)[C@H](O)c3ccc(c(Cl)c3)Oc3cc2cc(c3O[C@@H]2O[C@H](CO)[C@@H](O)[C@H](O)[C@H]2O[C@@H]2C[C@@](C)(NCc3ccc(-c4ccc(Cl)cc4)cc3)[C@@H](O)[C@@H](C)O2)Oc2ccc(cc2Cl)[C@H]1O [Compound 15]	0.25	0.12	0.25	0.12	–	2	–	–
CC(C)[C@H](N)C(=O)N[C@H]1C(=O)N[C@@H](CC(N)=O)C(=O)N[C@H]2C(=O)N[C@H]3C(=O)N[C@H](C(=O)N[C@@H](C(=O)O)c4cc(O)cc(O)c4-c4cc3ccc4O)[C@H](O)c3ccc(c(Cl)c3)Oc3cc2cc(c3O[C@@H]2O[C@H](CO)[C@@H](O)[C@H](O)[C@H]2O[C@@H]2C[C@@](C)(NCc3ccc(-c4ccc(Cl)cc4)cc3)[C@@H](O)[C@@H](C)O2)Oc2ccc(cc2Cl)[C@H]1O [Compound 20]	0.78	0.25	0.25	0.39	–	–	–	2
CC(N)C(=O)NCC(=O)NC1C(=O)NC(CC(N)=O)C(=O)NC2C(=O)NC3C(=O)NC(C(=O)NC(C(=O)O)c4cc(O)cc(O)c4-c4cc3ccc4O)C(O)c3ccc(c(Cl)c3)Oc3cc2cc(c3OC2OC(CO)C(O)C(O)C2OC2CC(C)(NCc3ccc(-c4ccc(Cl)cc4)cc3)C(O)C(C)O2)Oc2ccc(cc2Cl)C1O (centres unmarked) [Compound 36]	0.78	0.12	0.39	0.39	–	–	–	2
CSCCC(N)C(=O)NC1C(=O)NC(CC(N)=O)C(=O)NC2C(=O)NC3C(=O)NC(C(=O)NC(C(=O)O)c4cc(O)cc(O)c4-c4cc3ccc4O)C(O)c3ccc(c(Cl)c3)Oc3cc2cc(c3OC2OC(CO)C(O)C(O)C2OC2CC(C)(NCc3ccc(-c4ccc(Cl)cc4)cc3)C(O)C(C)O2)Oc2ccc(cc2Cl)C1O (centres unmarked) [Compound 41]	0.78	0.25	0.39	0.39	–	2	–	2
CCCCC(N)C(=O)NC1C(=O)NC(CC(N)=O)C(=O)NC2C(=O)NC3C(=O)NC(C(=O)NC(C(=O)O)c4cc(O)cc(O)c4-c4cc3ccc4O)C(O)c3ccc(c(Cl)c3)Oc3cc2cc(c3OC2OC(CO)C(O)C(O)C2OC2CC(C)(NCc3ccc(-c4ccc(Cl)cc4)cc3)C(O)C(C)O2)Oc2ccc(cc2Cl)C1O (centres unmarked) [Compound 42]	0.78	0.39	0.39	0.39	–	–	–	2
CNC(CC(C)C)C(=O)NC1C(=O)NC(CC(N)=O)C(=O)NC2C(=O)NC3C(=O)NC(C(=O)NC(C(=O)O)c4cc(O)cc(O)c4-c4cc3ccc4O)C(O)c3ccc(c(Cl)c3)Oc3cc2cc(c3OC2OC(CO)C(O)C(O)C2OC2CC(C)(NCc3ccc(-c4ccc(Cl)cc4)cc3)C(O)C(C)O2)Oc2ccc(cc2Cl)C1O (centres unmarked) [Compound 517, Cl-Biphenyl Vancomycin, reference compound]	0.25	0.062	0.25	0.25	–	–	–	–

Second part, led by results:

MIC E. faecalis ATCC 29212 (E. faecalis ATCC 29212) [µg/mL]	MIC E. faecium ATCC 49624 (E. faecium ATCC 49624) [µg/mL]	MIC S. aureus ATCC 29213 (S aureus ATCC 29213) [µg/mL]	MIC S. aureus ATCC 33591 (S. Aureus ATCC 33591) [µg/mL]	MIC E. faecium CL 4931 (E. faecium CL 4931) [µg/mL]	SMILES	zone score, E. faecalis CL 4877 (E. faecalis (CL 4877))	zone score, S. aureus ATCC 29213 (S. aureus (ATCC 29213))	zone score, E. faecium ATCC 49624 (E. faceium (ATCC 49624))
0.78	0.12	0.25	0.25	–	CC(NCC(N)C(=O)NC1C(=O)NC(CC(N)=O)C(=O)NC2C(=O)NC3C(=O)NC(C(=O)NC(C(=O)O)c4cc(O)cc(O)c4-c4cc3ccc4O)C(O)c3ccc(c(Cl)c3)Oc3cc2cc(c3OC2OC(CO)C(O)C(O)C2OC2CC(C)(NCc3ccc(-c4ccc(Cl)cc4)cc3)C(O)C(C)O2)Oc2ccc(cc2Cl)C1O)=C1C(=O)CC(C)(C)CC1=O (centres unmarked) [Compound 56]	–	–	2
0.78	0.25	0.39	0.78	25	CC1OC(OC2C(Oc3c4cc5cc3Oc3ccc(cc3Cl)C(O)C3NC(=O)C(NC(=O)C5NC(=O)C(CC(N)=O)NC(=O)C(NC(=O)C(N)CCCNC(=O)c5cnccn5)C(O)c5ccc(c(Cl)c5)O4)c4ccc(O)c(c4)-c4c(O)cc(O)cc4C(C(=O)O)NC3=O)OC(CO)C(O)C2O)CC(C)(NCc2ccc(-c3ccc(Cl)cc3)cc2)C1O (centres unmarked) [Compound 83]	–	2	2
0.39	0.062	0.39	0.39	–	CCOC(=O)NC(CC(N)=O)C(=O)NC1C(=O)NC(CC(N)=O)C(=O)NC2C(=O)NC3C(=O)NC(C(=O)NC(C(=O)O)c4cc(O)cc(O)c4-c4cc3ccc4O)C(O)c3ccc(c(Cl)c3)Oc3cc2cc(c3OC2OC(CO)C(O)C(O)C2OC2CC(C)(NCc3ccc(-c4ccc(Cl)cc4)cc3)C(O)C(C)O2)Oc2ccc(cc2Cl)C1O (centres unmarked) [Compound 188]	2	2	–
0.78	0.12	0.25	0.25	25	CC1OC(OC2C(Oc3c4cc5cc3Oc3ccc(cc3Cl)C(O)C3NC(=O)C(NC(=O)C5NC(=O)C(CC(N)=O)NC(=O)C(NC(=O)C(N)CSC(C)(C)C)C(O)c5ccc(c(Cl)c5)O4)c4ccc(O)c(c4)-c4c(O)cc(O)cc4C(C(=O)O)NC3=O)OC(CO)C(O)C2O)CC(C)(NCc2ccc(-c3ccc(Cl)cc3)cc2)C1O (centres unmarked) [Compound 334]	–	–	–
0.78	0.12	0.78	0.78	–	CNC(CC(C)C)C(=O)NC1C(=O)NC(CC(N)=O)C(=O)NC2C(=O)NC3C(=O)NC(C(=O)NC(C(=O)O)c4cc(O)cc(O)c4-c4cc3ccc4O)C(O)c3ccc(c(Cl)c3)Oc3cc2cc(c3OC2OC(CI)C(O)C(O)C2OC2CC(C)(NCc3ccc(-c4ccc(Cl)cc4)cc3)C(O)C(C)O2)Oc2ccc(cc2Cl)C1O (centres unmarked) [Compound 520]	–	–	–
0.78	0.12	0.78	0.78	–	CC1OC(OC2C(Oc3c4cc5cc3Oc3ccc(cc3Cl)C(O)C3NC(=O)C(NC(=O)C5NC(=O)C(CC(N)=O)NC(=O)C(NC(=O)C(N)COC(C)(C)C)C(O)c5ccc(c(Cl)c5)O4)c4ccc(O)c(c4)-c4c(O)cc(O)cc4C(C(=O)O)NC3=O)OC(CN)C(O)C2O)CC(C)(NCc2ccc(-c3ccc(Cl)cc3)cc2)C1O (centres unmarked) [Compound 521]	–	–	–
0.25	0.12	0.78	0.39	–	CNC(CC(C)C)C(=O)NC1C(=O)NC(CC(N)=O)C(=O)NC2C(=O)NC3C(=O)NC(C(=O)NC(C(=O)O)c4cc(O)cc(O)c4-c4cc3ccc4O)C(O)c3ccc(c(Cl)c3)Oc3cc2cc(c3OC2OC(CN)C(O)C(O)C2OC2CC(C)(NCc3ccc(-c4ccc(Cl)cc4)cc3)C(O)C(C)O2)Oc2ccc(cc2Cl)C1O (centres unmarked) [Compound 523]	–	–	–
0.78	0.25	0.39	0.39	25	CNC(COC(C)(C)C)C(=O)NC1C(=O)NC(CC(N)=O)C(=O)NC2C(=O)NC3C(=O)NC(C(=O)NC(C(=O)O)c4cc(O)cc(O)c4-c4cc3ccc4O)C(O)c3ccc(c(Cl)c3)Oc3cc2cc(c3OC2OC(CO)C(O)C(O)C2OC2CC(C)(NCc3ccc(-c4ccc(Cl)cc4)cc3)C(O)C(C)O2)Oc2ccc(cc2Cl)C1O (centres unmarked) [Compound 526]	–	–	–
0.78	0.12	0.25	0.25	25	CC(C)OCC(N)C(=O)NC1C(=O)NC(CC(N)=O)C(=O)NC2C(=O)NC3C(=O)NC(C(=O)NC(C(=O)O)c4cc(O)cc(O)c4-c4cc3ccc4O)C(O)c3ccc(c(Cl)c3)Oc3cc2cc(c3OC2OC(CO)C(O)C(O)C2OC2CC(C)(NCc3ccc(-c4ccc(Cl)cc4)cc3)C(O)C(C)O2)Oc2ccc(cc2Cl)C1O (centres unmarked) [Compound 528]	–	–	–
0.78	0.12	0.25	0.25	25	CC(C)OCC(N)C(=O)NC1C(=O)NC(CC(N)=O)C(=O)NC2C(=O)NC3C(=O)NC(C(=O)NC(C(=O)O)c4cc(O)cc(O)c4-c4cc3ccc4O)C(O)c3ccc(c(Cl)c3)Oc3cc2cc(c3OC2OC(CO)C(O)C(O)C2OC2CC(C)(NCc3ccc(-c4ccc(Cl)cc4)cc3)C(O)C(C)O2)Oc2ccc(cc2Cl)C1O (centres unmarked) [Compound 529]	–	–	–
